Read-outs that look alike come from different tables or passages of the source.
Legend:
[1] = tested on: E. coli cells expressing the artificial biosynthetic pathway (pJBEI6410+pJHA170); assay: Cell viability test with CFU (colony forming units) assay; assay type: cell-based; conditions: high concentration, 4 h exposure
Description: 9. Cell viability test with CFU (colony forming units) assay. E. coli cells co-transformed with pJBEI6410 and pJHA170 were grown as described in 7, except for the following steps. […] A portion of cell culture (1.4 mL) was transferred into Falcon 14 mL round-bottom tube. […] For the control group, only sterile ddH2O (1%, v/v) was added. The cultures were further incubated at 30° C., 200 rpm for 4 h. Then the cultures were diluted 10^5 times. Aliquots of diluted cell suspension (50 μL) were plated onto LB agar plates. The plates were incubated at 30° C. for 24 h. The colonies grown on the plates were manually counted and the percentage of viable cells in each group was calculated by normalizing the number of colonies grown in the control group as 100%.

apo-ascorbate peroxidase [2] = conditions: from literature (ref. 9); cited from earlier work
[3] = molecular target: T1, Sulfolobus CYP119 (cytochrome P450 119, parent sequence SEQ ID NO: 1), apo form, CYP119-141 mutant (C317G, T213G, V254L, L155W) (Sulfolobus acidocaldarius, UniProt Q55080, C317G/L155W/T213G/V254L); assay: Binding affinity of apo-CYP119 towards Ir(Me)MPIX/hemin (intrinsic fluorescence quenching, Benesi-Hildebrand); set-up: species or system Sulfolobus solfataricus; conditions: excitation 294 nm, 10 mM TRIS buffer pH 8.0, Benesi-Hildebrand analysis
T1 construct: made in house
T1 sequence (Q55080 whole entry L155W/T213G/V254L/C317G): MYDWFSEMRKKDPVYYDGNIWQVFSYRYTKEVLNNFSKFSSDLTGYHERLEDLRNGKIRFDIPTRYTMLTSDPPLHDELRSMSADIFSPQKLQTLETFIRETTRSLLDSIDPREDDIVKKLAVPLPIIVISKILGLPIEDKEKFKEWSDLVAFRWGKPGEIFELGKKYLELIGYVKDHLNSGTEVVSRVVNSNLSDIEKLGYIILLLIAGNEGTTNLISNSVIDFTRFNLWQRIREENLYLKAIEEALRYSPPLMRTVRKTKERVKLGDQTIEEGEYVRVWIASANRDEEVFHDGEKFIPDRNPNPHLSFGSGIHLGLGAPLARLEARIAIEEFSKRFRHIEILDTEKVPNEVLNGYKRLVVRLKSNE
Description: Intrinsic fluorescence quenching;^8 Modified from a reported procedure, aliquots (10 μL) of metalloporphyrin stock solutions (in DMSO) were added to a solution containing 0.15 mg/L apo-CYP119 (CYP119-141 mutant, 800 μL, 10 mM TRIS buffer, pH 8.0). This addition caused the concentration of the protein to decrease from its initial value to a final concentration of 0.148 mg/L in the process. After each addition, the emission spectrum of CYP119 was recorded upon excitation at 294 nm. In quenching experiments, the concentration of the chromophore (CYP119 or porphyrin) was kept sufficiently low (<0.15) to ensure uniform light absorption throughout the sample and reduced inner filter effects. The fluorescence emission intensity was calculated as the integral of the emission spectrum in the recorded wavelength range (305-450 nm).

apo-myoglobin [4] = conditions: from literature (ref. 9); cited from earlier work
apo-ascorbate peroxidase [5] = conditions: literature; cited from earlier work
apo-myoglobin [6] = conditions: literature; cited from earlier work

CCOC(=O)C=[N+]=[N-] [EDA, ethyl diazoacetate]
toxicity to E. coli cells (viable cells) [1]: toxic

C=CC1=C(C)c2cc3[nH]c(cc4nc(cc5[nH]c(cc1n2)c(C)c5CCC(=O)O)C(CCC(=O)O)=C4C)c(C)c3C=C.[Fe+3] [Fe(Cl)PPIX, reference compound]
Kd (apo-ascorbate peroxidase [2]): 190 nM | Kb [3]: 6.7(0.7) × 10^5 M^−1 | Kd [3]: 1500 nM | Kd (apo-myoglobin [4]): 600 nM

C=CC1=C(C)c2cc3[n-]c(cc4[n-]c(cc5nc(cc1n2)C(C)=C5C=C)c(C)c4CCC(=O)O)c(CCC(=O)O)c3C.[Cl-].[Fe+3] [Fe(Cl)PPIX]
Kd (apo-ascorbate peroxidase [5]): 190 nM | Kd (apo-myoglobin [6]): 600 nM
